These results are taken from US4068074A, “Cephalosporin derivatives having at the 3-position of the cephem ring a heterocyclic thiomethyl group with a carboxy or sulfo group and at the 7-position of the cephem ring an α-heterocylic acylaminophenyl-acetamide group” (priority 1974, dated 1978).

The structures appear in SMILES notation. ≈ marks a conversion by molar mass, not a printed value. Read-outs that look alike come from different tables or passages of the source.

Common to all, as to type: cell-based
The subject of experiment [1] is Micrococcus flavus ATCC 10240. Description: MIC against bacteria (Table I), strain (15). Particulars: ATCC10240. The source says: (§1) Now, for illustrating the excellent pharmacological effects of the compounds of this invention, the values of MIC (γ/ml.) of the compounds against various bacteria are shown in Table 1, in which the compounds of this invention used are shown by example numbers.
(15) Micrococcus flavus ATCC 10240

A further experiment concerns Proteus vulgaris 0X 19US. Description: MIC against bacteria (Table I), strain (2). Particulars: 0X19US.
Excerpt: as §1
(2) Proteus vulgaris 0X 19US

Experiment [2] concerns Escherichia coli kauffmann 0-1. Put plainly: MIC against bacteria (Table I), strain (7).
Excerpt: as §1
(7) Escherichia coli kauffmann 0-1

Experiment [3] deals with Bacillus megatherium 10778. Description: MIC against bacteria (Table I), strain (13).
Excerpt: as §1

Experiment [4] deals with Staphylococcus aureus 209P. Put plainly: MIC against bacteria (Table I), strain (16).
Excerpt: as §1
(16) Staphylococcus aureus 209P

The next experiment has as its system Salmonella typhi H901 W. Put plainly: MIC against bacteria (Table I), strain (9). Particulars: Salmonella enterica, TYPHI.
Excerpt: as §1
(9) Salmonella typhi H901 W

The next experiment deals with Proteus vulgaris OXK US. Description: MIC against bacteria (Table I), strain (1).
Excerpt: as §1
(1) Proteus vulgaris OXK US

Experiment [5] relates to Pseudomonas aeruginosa ATCC 8689. Put plainly: MIC against bacteria (Table I), strain (4). Particulars: ATCC8689; (4) Pseudomonas aeruginosa ATCC 8689; read-out: MIC.
Excerpt: as §1
(4) Pseudomonas aeruginosa ATCC 8689

The next experiment has as its system Staphylococcus Onuma. Description: MIC against bacteria (Table I), strain (18).
Excerpt: as §1
(18) Staphylococcus Onuma

In experiment [6] the test system is Klebsiella pneumoniae ATCC 10031. Description: MIC against bacteria (Table I), strain (8). Particulars: ATCC10031.
Excerpt: as §1
(8) Klebsiella pneumoniae ATCC 10031

For experiment [7], the system named is Shigella flexneri 2a 1675. Description: MIC against bacteria (Table I), strain (11). Particulars: 2A1675; (11) Shigella flexneri 2a 1675; read-out: MIC.
Excerpt: as §1

Another experiment concerns Salmonella enteritidis. Put plainly: MIC against bacteria (Table I), strain (10). Particulars: Salmonella enterica.
Excerpt: as §1
(10) Salmonella enteritidis

The subject of experiment [8] is Bacillus subtilis ATCC 6633. Description: MIC against bacteria (Table I), strain (14). Particulars: ATCC6633.
Excerpt: as §1
(14) Bacillus subtilis ATCC 6633

For a further experiment, the system named is Shigella sonnei II 37148. Description: MIC against bacteria (Table I), strain (12). Particulars: II37148; (12) Shigella sonnei II 37148; read-out: MIC.
Excerpt: as §1

In experiment [9] the test system is Staphylococcus Shimanishi. Put plainly: MIC against bacteria (Table I), strain (17).
Excerpt: as §1
(17) Staphylococcus Shimanishi

The test system of experiment [10] is Proteus mirabilis IXM OM-19. Put plainly: MIC against bacteria (Table I), strain (3). Particulars: IXMOM19; (3) Proteus mirabilis IXM OM-19; read-out: MIC.
Excerpt: as §1
(3) Proteus mirabilis IXM OM-19

The subject of experiment [11] is Pseudomonas aeruginosa 99 (Gentamycin resistant). Description: MIC against bacteria (Table I), strain (5).
Excerpt: as §1
(5) Pseudomonas aeruginosa 99 (Gentamycin resistant)

Experiment [12] concerns Psuedomonas ovalis IMA 1002. Put plainly: MIC against bacteria (Table I), strain (6). Particulars: (6) Psuedomonas ovalis IMA 1002; read-out: MIC.
Excerpt: as §1
(6) Psuedomonas ovalis IMA 1002

Where [13] appears, read: (8) Klebsiella pneumoniae ATCC 10031, read-out: MIC.
Setting [14] is: (15) Micrococcus flavus ATCC 10240, read-out: MIC.
The mark [15] stands for this setting: (2) Proteus vulgaris 0X 19US, read-out: MIC.
Where [16] appears, read: (13) Bacillus megatherium 10778, read-out: MIC.
Setting [17] is: (16) Staphylococcus aureus 209P, read-out: MIC.
Setting [18] is: (1) Proteus vulgaris OXK US, read-out: MIC.
[19] abbreviates: (10) Salmonella enteritidis, read-out: MIC.
Where [20] appears, read: (14) Bacillus subtilis ATCC 6633, read-out: MIC.
Where [21] appears, read: (17) Staphylococcus Shimanishi, read-out: MIC.

As to `CC1=C(C(=O)O)N2C(=O)[C@@H](NC(=O)[C@H](N)c3ccccc3)[C@H]2SC1` [Cephalexin, reference compound], the MIC (in general, the least concentration at which growth counts as inhibited) is 1.56 µg/mL (≈ 4.49 µM) in [1] (Micrococcus flavus); 30 µg/mL (≈ 86.4 µM) against Proteus vulgaris 0X 19US (Proteus vulgaris); 10 µg/mL (≈ 28.8 µM) in [2] (Escherichia coli); 0.78 µg/mL (≈ 2.25 µM) in experiment [3] (Bacillus, 10778); 1.56 µg/mL (≈ 4.49 µM) in experiment [4] (Staphylococcus aureus, 209P); 6.25 µg/mL (≈ 18 µM) against Salmonella typhi H901 W. Also, the MIC against Proteus vulgaris OXK US (Proteus vulgaris) was 30 µg/mL (≈ 86.4 µM); in experiment [5] it was > 100 µg/mL; in the experiment with Staphylococcus Onuma (Staphylococcus) it was 12.5 µg/mL (≈ 36 µM); in experiment [6] (setting [13]), 3 µg/mL (≈ 8.64 µM); in experiment [7] it was 6.25 µg/mL (≈ 18 µM); in the experiment with Salmonella enteritidis (ENTERITIDIS), 6.25 µg/mL (≈ 18 µM). In addition, the values for the MIC (in experiment [8] (Bacillus subtilis); in the experiment on Shigella sonnei II 37148; in experiment [9] (Staphylococcus)) were 0.78 µg/mL (≈ 2.25 µM), 6.25 µg/mL (≈ 18 µM) and 6.25 µg/mL (≈ 18 µM), respectively.
With `CC(=O)OCC1=C(C(=O)O)N2C(=O)[C@@H](NC(=O)[C@H](N)c3ccccc3)[C@H]2SC1` [Cephaloglycin, reference compound], the minimum inhibitory concentration (MIC) in experiment [1] (setting [14]) was determined as 0.3 µg/mL (≈ 0.74 µM); in the experiment on Proteus vulgaris 0X 19US (setting [15]) it was 100 µg/mL (≈ 247 µM); in experiment [10], 100 µg/mL (≈ 247 µM); in experiment [2] (Escherichia coli), 100 µg/mL (≈ 247 µM); in [3] (setting [16]) it was 1 µg/mL (≈ 2.47 µM); in experiment [4] (setting [17]), 1 µg/mL (≈ 2.47 µM). The MIC in the experiment with Salmonella typhi H901 W is 3 µg/mL (≈ 7.4 µM); in the experiment with Proteus vulgaris OXK US (setting [18]), 25 µg/mL (≈ 61.7 µM); in experiment [5] it was > 100 µg/mL; with Staphylococcus Onuma ((18) Staphylococcus Onuma, read-out: MIC), 3 µg/mL (≈ 7.4 µM); in experiment [6] (setting [13]) it was 25 µg/mL (≈ 61.7 µM); in experiment [7], 3 µg/mL (≈ 7.4 µM). In addition, the MIC in the experiment with Salmonella enteritidis (setting [19]) is 3 µg/mL (≈ 7.4 µM); in experiment [8] (setting [20]) it was 0.3 µg/mL (≈ 0.74 µM); in experiment [11] (Pseudomonas aeruginosa), > 100 µg/mL; with Shigella sonnei II 37148, 10 µg/mL (≈ 24.7 µM); in [9] (setting [21]), 3 µg/mL (≈ 7.4 µM); in experiment [12], > 100 µg/mL.
In the case of `O=C(O)CCC(=O)Nc1nnc(SCC2=C(C(=O)O)N3C(=O)[C@@H](NC(=O)[C@H](NC(=O)c4csccc4=O)c4ccccc4)[C@H]3SC2)s1` [Example 1, 7-[D-α-(4-oxo-4H-thiopyran-3-ylcarboxamido)-α-phenylacetamido]-3-[5-(3-carboxypropionylamino)-1,3,4-thiadiazol-2-yl]thiomethyl-Δ^3-cephem-4-carboxylic acid], the MIC in experiment [1] (setting [14]) worked out at 3.13 µg/mL (≈ 4.37 µM); in the experiment on Proteus vulgaris 0X 19US (setting [15]), 0.19 µg/mL (≈ 0.265 µM); in [10] it was 0.78 µg/mL (≈ 1.09 µM); in [2] ((7) Escherichia coli kauffmann 0-1, read-out: MIC), 25 µg/mL (≈ 34.9 µM); in experiment [3] (setting [16]), 0.78 µg/mL (≈ 1.09 µM); in experiment [4] (setting [17]), 0.78 µg/mL (≈ 1.09 µM). For the same molecule, the MIC with Salmonella typhi H901 W was 1.56 µg/mL (≈ 2.18 µM); with Proteus vulgaris OXK US (setting [18]), 0.19 µg/mL (≈ 0.265 µM); in experiment [5], 25 µg/mL (≈ 34.9 µM); with Staphylococcus Onuma (Staphylococcus), 6.25 µg/mL (≈ 8.72 µM); in experiment [6] (Klebsiella pneumoniae), 6.25 µg/mL (≈ 8.72 µM); in [7] it was 6.25 µg/mL (≈ 8.72 µM). In addition, the MIC stood at 0.78 µg/mL (≈ 1.09 µM) in the experiment on Salmonella enteritidis (setting [19]); 0.39 µg/mL (≈ 0.544 µM) in experiment [8] (setting [20]); 50 µg/mL (≈ 69.8 µM) in experiment [11] ((5) Pseudomonas aeruginosa 99 (Gentamycin resistant), read-out: MIC); 25 µg/mL (≈ 34.9 µM) in the experiment with Shigella sonnei II 37148; 3.13 µg/mL (≈ 4.37 µM) in [9] (setting [21]); 25 µg/mL (≈ 34.9 µM) in [12].
